Reference: US8497278B2, “Imidazo[1,2-a]pyridine compounds” (priority 2008, dated 2013)

Test system: central benzodiazepine receptors
Assay: Central benzodiazepine receptor binding (test of Speth et al.)
Conditions: 1000 nM of the compound
Experimental: Compounds of the invention were assessed for their binding to the benzodiazepine receptor by the test of Speth et al. [Life Sci. 24, 351 (1979)] for central benzodiazepine receptors and LeFur et al. [Life Sci. 33, 449 (1983)] for peripheral receptors. The compounds were tested first at 1.0E-09, 1.0E-07 and 1.0E-05 M in single determination. […] The specific ligand binding to the receptor is defined as the difference between the total binding and the nonspecific binding determined in the presence of an excess of unlabelled ligand. In each experiment, the respective reference compound was tested concurrently with the test compounds in order to assess the assay suitability. It was tested at several concentrations (for IC50 value determination), and the data were compared with historical values. The assay was rendered valid if suitability criteria were met.
BZD central binding data for the compounds is provided in Table 3, wherein is provided the percent inhibition of central BZD in the presence of 1000 nM of the compound.

Row | SMILES | % Inhibition at 1000 nM for CBZD
1 | O=C1OCCN1Cc1c(-c2ccc(Cl)cc2)nc2ccc(Cl)cn12 [Compound 111, 3-((6-chloro-2-(4-chlorophenyl)H-imidazo[1,2-a]pyridin-3-yl)methyl)oxazolidin-2-one] | ++ (percentage of inhibition of central BZD site binding is greater than 80% in the presence of 1000 nM of the compound)
2 | O=C1CCCN1Cc1c(-c2ccc(Cl)cc2)nc2ccc(Cl)cn12 [Compound 112, 1-((6-chloro-2-(4-chlorophenyl)H-imidazo[1,2-a]pyridin-3-yl)methyl)pyrrolidin-2-one] | ++ (percentage of inhibition of central BZD site binding is greater than 80% in the presence of 1000 nM of the compound)
3 | O=C1CCN1Cc1c(-c2ccc(Cl)cc2)nc2ccc(Cl)cn12 [Compound 113, 1-[6-Chloro-2-(4-chloro-phenyl)-imidazo[1,2-a]pyridin-3-ylmethyl]-azetidin-2-one] | ++ (percentage of inhibition of central BZD site binding is greater than 80% in the presence of 1000 nM of the compound)
4 | Cc1ccc(-c2nc3ccc(C)cn3c2CNc2nccc(C)n2)cc1 [Compound 143, 4-methyl-N-((6-methyl-2-p-tolylH-imidazo[1,2-a]pyridin-3-yl)methyl)pyrimidin-2-amine] | ++ (percentage of inhibition of central BZD site binding is greater than 80% in the presence of 1000 nM of the compound)
5 | CSc1nsc(=S)n1Cc1c(-c2ccc(C)cc2)nc2ccc(C)cn12 [Compound 129, 3-Methylsulfanyl-4-(6-methyl-2-p-tolyl-imidazo[1,2-a]pyridin-3-ylmethyl)-4H-[1,2,4]thiadiazole-5-thione] | ++ (percentage of inhibition of central BZD site binding is greater than 80% in the presence of 1000 nM of the compound)
6 | Cc1ccc(-c2nc3ccc(C)cn3c2Cn2ccnc2C(=O)N(C)C)cc1 [Compound 71, N,N-Dimethyl-1-((6-methyl-2-p-tolylH-imidazo[1,2-a]pyridin-3-yl)methyl)-1H-imidazole-2-carboxamide] | + (percentage of inhibition of central BZD site binding is greater than 50% but less than 80% in the presence of 1000 nM of the compound)
7 | Cc1ccc(-c2nc3ccc(C)cn3c2CNc2ccccn2)cc1 [Compound 140, N-((6-methyl-2-p-tolylH-imidazo[1,2-a]pyridin-3-yl)methyl)pyridin-2-amine] | ++ (percentage of inhibition of central BZD site binding is greater than 80% in the presence of 1000 nM of the compound)
8 | Clc1ccc(-c2nc3ccccn3c2Cn2cncn2)cc1 [Compound 67, 3-((1H-1,2,4-triazol-1-yl)methyl)-2-(4-chlorophenyl)imidazo[1,2-a]pyridine] | ++ (percentage of inhibition of central BZD site binding is greater than 80% in the presence of 1000 nM of the compound)
9 | Cc1nc(Cc2c(-c3ccc(F)cc3)nc3ccc(F)cn23)no1 [Compound 201, 3-((6-fluoro-2-(4-fluoropnyl)imidazo[1,2-a]pyridin-3-yl)methyl)-5-methyl-1,2,4-oxadiazole] | ++ (percentage of inhibition of central BZD site binding is greater than 80% in the presence of 1000 nM of the compound)
10 | Cc1ccc(-c2nc3c(Cl)cc(Cl)cn3c2Cn2nc(C)ccc2=O)cc1 [Compound 117, 2-(6,8-Dichloro-2-p-tolyl-imidazo[1,2-a]pyridin-3-ylmethyl)-6-methyl-2H-pyridazin-3-one] | ++ (percentage of inhibition of central BZD site binding is greater than 80% in the presence of 1000 nM of the compound)
11 | Cc1ccc(-c2nc3ccc(C)cn3c2CNc2nc3ccccc3n2C)cc1 [Compound 154, 1-methyl-N-((6-methyl-2-p-tolylH-imidazo[1,2-a]pyridin-3-yl)methyl)-1H-benzo[d]imidazol-2-amine] | ++ (percentage of inhibition of central BZD site binding is greater than 80% in the presence of 1000 nM of the compound)
12 | Cc1ccc(-c2nc3ccc(C)cn3c2Cn2ccccc2=O)cc1 [Compound 96, 1-((6-methyl-2-p-tolyl-H-imidazo[1,2-a]pyridin-3-yl)methyl)pyridin-2(1H)-one] | ++ (percentage of inhibition of central BZD site binding is greater than 80% in the presence of 1000 nM of the compound)
13 | O=C1C=C(N2CCCCC2)CN1Cc1c(-c2ccc(Cl)cc2)nc2ccccn12 [Compound 239, 1-((2-(4-chlorophenyl)imidazo[1,2-a]pyridin-3-yl)methyl)-4-(piperidin-1-yl)-1H-pyrrol-2(5H)-one] | ++ (percentage of inhibition of central BZD site binding is greater than 80% in the presence of 1000 nM of the compound)
14 | CCOC(=O)c1nccn1Cc1c(-c2ccc(Cl)cc2)nc2ccc(Cl)cn12 [Compound 22, 1-[6-Chloro-2-(4-chloro-phenyl)-imidazo[1,2-a]pyridin-3-ylmethyl]-1H-imidazole-2-carboxylic acid ethyl ester] | ++ (percentage of inhibition of central BZD site binding is greater than 80% in the presence of 1000 nM of the compound)
15 | Clc1ccc(-c2nc3ccccn3c2Cn2cnnn2)cc1 [Compound 41, 3-((1H-tetrazol-1-yl)methyl)-2-(4-chlorophenyl)imidazo[1,2-a]pyridine] | ++ (percentage of inhibition of central BZD site binding is greater than 80% in the presence of 1000 nM of the compound)
16 | COC1=CC(=O)N(Cc2c(-c3ccc(C)cc3)nc3ccc(C)cn23)C1 [Compound 94, 4-methoxy-1-((6-methyl-2-p-tolyl-H-imidazo[1,2-a]pyridin-3-yl)methyl)-1H-pyrrol-2(5H)-one] | ++ (percentage of inhibition of central BZD site binding is greater than 80% in the presence of 1000 nM of the compound)
17 | Fc1ccc(-c2nc3ccccn3c2Cn2ccnn2)cc1 [Compound 48, 3-((1H-1,2,3-triazol-1-yl)methyl)-2-(4-fluorophenyl)H-imidazo[1,2-a]pyridine] | ++ (percentage of inhibition of central BZD site binding is greater than 80% in the presence of 1000 nM of the compound)
18 | Cc1ccc(-c2nc3ccc(C)cn3c2CNc2ncc[nH]2)cc1 [Compound 153, N-((6-methyl-2-p-tolyl-H-imidazo[1,2-a]pyridin-3-yl)methyl)-1H-imidazol-2-amine] | ++ (percentage of inhibition of central BZD site binding is greater than 80% in the presence of 1000 nM of the compound)
19 | Cc1ccc(-c2nc3ccc(C)cn3c2CN2CCN(C)C2=O)cc1 [Compound 92, 1-methyl-3-((6-methyl-2-p-tolylH-imidazo[1,2-a]pyridin-3-yl)methyl)imidazolidin-2-one] | ++ (percentage of inhibition of central BZD site binding is greater than 80% in the presence of 1000 nM of the compound)
20 | COC(=O)c1ncn(Cc2c(-c3ccccc3)nc3ccc(Cl)cn23)n1 [Compound 45, 1-(6-Chloro-2-phenyl-imidazo[1,2-a]pyridin-3-ylmethyl)-1H-[1,2,4]triazole-3-carboxylic acid methyl ester] | + (percentage of inhibition of central BZD site binding is greater than 50% but less than 80% in the presence of 1000 nM of the compound)
21 | Cc1ccc(-c2nc3c(Cl)cc(Cl)cn3c2CNc2ncc[nH]2)cc1 [Compound 171, (6,8-Dichloro-2-p-tolyl-imidazo[1,2-a]pyridin-3-ylmethyl)-(1H-imidazol-2-yl)-amine] | ++ (percentage of inhibition of central BZD site binding is greater than 80% in the presence of 1000 nM of the compound)
22 | CCOC(=O)c1cc(-c2ccco2)nn1Cc1c(-c2ccc(Cl)cc2)nc2ccccn12 [Compound 31, Ethyl 1-((2-(4-chlorophenyl)imidazo[1,2-a]pyridin-3-yl)methyl)-3-(furan-2-yl)-1H-pyrazole-5-carboxylate] | + (percentage of inhibition of central BZD site binding is greater than 50% but less than 80% in the presence of 1000 nM of the compound)
23 | Fc1ccc(-c2nc3ccc(Cl)cn3c2CNc2nc(F)cc(F)n2)cc1 [Compound 169, N-((6-Chloro-2-(4-fluorophenyl)imidazo[1,2-a]pyridin-3-yl)methyl)-4,6-difluoropyrimidin-2-amine] | ++ (percentage of inhibition of central BZD site binding is greater than 80% in the presence of 1000 nM of the compound)
24 | O=C1C=C(N2CCC(O)CC2)CN1Cc1c(-c2ccc(Cl)cc2)nc2ccccn12 [Compound 241, 1-((2-(4-chlorophenyl)imidazo[1,2-a]pyridin-3-yl)methyl)-4-(4-hydroxypiperidin-1-yl)-1H-pyrrol-2(5H)-one] | ++ (percentage of inhibition of central BZD site binding is greater than 80% in the presence of 1000 nM of the compound)
25 | Cc1ccc(-c2nc3ccc(C)cn3c2CNc2ncncn2)cc1 [Compound 146, (6-Methyl-2-p-tolyl-imidazo[1,2-a]pyridin-3-ylmethyl)-[1,3,5]triazin-2-yl-amine] | ++ (percentage of inhibition of central BZD site binding is greater than 80% in the presence of 1000 nM of the compound)
26 | CN(C)CCNc1ccn(Cc2c(-c3ccc(Cl)cc3)nc3ccccn23)c(=O)n1 [Compound 134, 1-((2-(4-chlorophenyl)imidazo[1,2-a]pyridin-3-yl)methyl)-4-(2-(dimethylamino)ethylamino)pyrimidin-2(1H)-one] | ++ (percentage of inhibition of central BZD site binding is greater than 80% in the presence of 1000 nM of the compound)
27 | Cc1ccc(-c2nc3ccc(C)cn3c2CNc2cnccn2)cc1 [Compound 144, N-((6-methyl-2-p-tolylH-imidazo[1,2-a]pyridin-3-yl)methyl)pyrazin-2-amine] | ++ (percentage of inhibition of central BZD site binding is greater than 80% in the presence of 1000 nM of the compound)
